Legend:
Format in all cases: biochemical
[1] = target: recombinant human FAPα (rhFAPα) (Homo sapiens (Human), UniProt Q12884); test: FAPα enzymatic exopeptidase (dipeptidase) activity assay, Z-Gly-Pro-AMC; settings: for inhibition at 1 µM: 1 μM test compound, exopeptidase, Table 3B, read-out: rhFAPα (% exo inh @ 1 μM)
[2] = target: recombinant human DPPIV (rhDPPIV) (Homo sapiens (Human), UniProt P27487); test: DPPIV enzymatic activity assay; settings: Table 3B
[3] = target: recombinant human DPP9 (rhDPP9) (Homo sapiens (Human), UniProt Q86TI2); test: Inhibition of DPP9 activity, 10 ng rhDPP9, H-Gly-Pro-AMC; settings: Table 3B
recombinant human DPP9 (rhDPP9), sequence (Q86TI2 whole entry): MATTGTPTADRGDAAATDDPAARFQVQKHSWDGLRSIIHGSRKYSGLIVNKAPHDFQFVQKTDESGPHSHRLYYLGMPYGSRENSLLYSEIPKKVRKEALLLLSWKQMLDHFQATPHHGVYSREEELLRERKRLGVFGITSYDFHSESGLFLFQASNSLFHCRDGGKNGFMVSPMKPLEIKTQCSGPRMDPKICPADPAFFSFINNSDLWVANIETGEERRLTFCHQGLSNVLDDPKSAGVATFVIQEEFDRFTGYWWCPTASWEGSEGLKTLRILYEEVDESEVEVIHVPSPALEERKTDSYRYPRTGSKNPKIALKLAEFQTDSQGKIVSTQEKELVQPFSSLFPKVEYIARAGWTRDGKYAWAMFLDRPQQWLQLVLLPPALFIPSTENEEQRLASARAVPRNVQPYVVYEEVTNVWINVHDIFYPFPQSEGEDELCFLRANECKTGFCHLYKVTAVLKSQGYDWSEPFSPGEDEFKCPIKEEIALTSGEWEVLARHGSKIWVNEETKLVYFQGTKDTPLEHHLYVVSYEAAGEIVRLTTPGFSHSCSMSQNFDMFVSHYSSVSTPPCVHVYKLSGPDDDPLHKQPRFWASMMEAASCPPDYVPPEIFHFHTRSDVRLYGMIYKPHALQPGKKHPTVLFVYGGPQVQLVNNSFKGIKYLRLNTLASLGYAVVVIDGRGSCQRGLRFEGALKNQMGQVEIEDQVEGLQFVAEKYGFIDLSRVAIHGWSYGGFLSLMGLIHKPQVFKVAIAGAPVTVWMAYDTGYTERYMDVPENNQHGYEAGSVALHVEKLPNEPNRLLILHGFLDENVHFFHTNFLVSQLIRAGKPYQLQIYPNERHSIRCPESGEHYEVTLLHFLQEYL

recombinant human DPPIV (rhDPPIV), sequence (P27487 whole entry): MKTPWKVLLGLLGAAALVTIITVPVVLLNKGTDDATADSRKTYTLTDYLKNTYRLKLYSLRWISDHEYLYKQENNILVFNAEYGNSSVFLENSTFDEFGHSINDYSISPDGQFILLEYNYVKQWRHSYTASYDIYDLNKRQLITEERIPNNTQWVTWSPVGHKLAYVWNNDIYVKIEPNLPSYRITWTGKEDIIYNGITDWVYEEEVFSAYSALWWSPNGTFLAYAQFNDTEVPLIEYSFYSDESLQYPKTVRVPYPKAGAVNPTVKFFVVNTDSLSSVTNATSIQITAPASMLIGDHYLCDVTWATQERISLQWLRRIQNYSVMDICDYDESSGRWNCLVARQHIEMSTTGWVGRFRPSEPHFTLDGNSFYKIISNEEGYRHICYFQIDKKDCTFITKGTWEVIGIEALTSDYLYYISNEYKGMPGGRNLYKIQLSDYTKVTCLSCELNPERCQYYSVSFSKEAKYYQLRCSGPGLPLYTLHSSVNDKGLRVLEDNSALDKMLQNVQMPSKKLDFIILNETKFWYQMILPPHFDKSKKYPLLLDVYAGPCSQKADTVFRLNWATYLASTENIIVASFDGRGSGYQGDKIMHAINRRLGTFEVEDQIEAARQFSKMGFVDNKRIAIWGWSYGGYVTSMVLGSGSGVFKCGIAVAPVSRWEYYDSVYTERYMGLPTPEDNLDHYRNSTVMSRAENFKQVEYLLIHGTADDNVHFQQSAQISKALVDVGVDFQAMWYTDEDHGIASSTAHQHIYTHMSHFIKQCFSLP
recombinant human FAPα (rhFAPα), sequence (Q12884 whole entry): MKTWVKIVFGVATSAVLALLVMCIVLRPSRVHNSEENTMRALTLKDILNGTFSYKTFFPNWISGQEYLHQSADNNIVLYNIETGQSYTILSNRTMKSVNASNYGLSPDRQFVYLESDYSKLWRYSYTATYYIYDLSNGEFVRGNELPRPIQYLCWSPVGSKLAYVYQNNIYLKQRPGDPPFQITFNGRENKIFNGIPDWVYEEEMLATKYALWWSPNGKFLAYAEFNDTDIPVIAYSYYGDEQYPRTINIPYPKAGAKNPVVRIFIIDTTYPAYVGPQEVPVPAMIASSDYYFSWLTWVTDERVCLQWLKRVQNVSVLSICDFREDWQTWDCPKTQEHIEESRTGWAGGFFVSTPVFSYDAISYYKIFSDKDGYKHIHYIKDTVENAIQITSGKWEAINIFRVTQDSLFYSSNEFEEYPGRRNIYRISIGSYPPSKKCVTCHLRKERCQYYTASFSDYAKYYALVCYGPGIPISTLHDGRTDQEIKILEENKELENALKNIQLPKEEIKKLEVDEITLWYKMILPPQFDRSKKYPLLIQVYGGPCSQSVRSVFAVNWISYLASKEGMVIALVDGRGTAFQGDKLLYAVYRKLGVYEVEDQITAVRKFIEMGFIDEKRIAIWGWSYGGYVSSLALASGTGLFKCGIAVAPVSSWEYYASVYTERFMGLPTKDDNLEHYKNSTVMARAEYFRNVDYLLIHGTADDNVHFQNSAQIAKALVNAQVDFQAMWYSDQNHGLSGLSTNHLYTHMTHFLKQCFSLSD

Row | SMILES | inhibition at 1 µM [1] | IC50 [2] | IC50 [3] | IC50 [1]
1 | N#C[C@@H]1CC(F)(F)CN1C(=O)CNC(=O)c1ccnc2ccc(-c3ccccc3)cc12 [Compound 1, (S)—N-(2-(2-cyano-4,4-difluoropyrrolidin-1-yl)-2-oxoethyl)-6-phenylquinoline-4-carboxamide] | > 50% | > 10 µM | – | –
2 | Cc1noc(C)c1-c1ccc2nccc(C(=O)NCC(=O)N3CC(F)(F)C[C@H]3C#N)c2c1 [Compound 4, (S)—N-(2-(2-cyano-4,4-difluoropyrrolidin-1-yl)-2-oxoethyl)-6-(3,5-dimethylisoxazol-4-yl)quinoline-4-carboxamide] | > 50% | > 10 µM | – | –
3 | N#C[C@@H]1CC(F)(F)CN1C(=O)CNC(=O)c1ccnc2ccc(-c3cccnc3)cc12 [Compound 5, (S)—N-(2-(2-cyano-4,4-difluoropyrrolidin-1-yl)-2-oxoethyl)-6-(pyridin-3-yl)quinoline-4-carboxamide] | – | > 10 µM | < 1000 nM | –
4 | N#C[C@@H]1CC(F)(F)CN1C(=O)CNC(=O)c1ccnc2ccc(-c3ccncc3)cc12 [Compound 6, (S)—N-(2-(2-cyano-4,4-difluoropyrrolidin-1-yl)-2-oxoethyl)-6-(pyridin-4-yl)quinoline-4-carboxamide] | – | > 10 µM | < 1000 nM | –
5 | CC(C)(C)c1ccc(-c2ccc3nccc(C(=O)NCC(=O)N4CC(F)(F)C[C@H]4C#N)c3c2)cc1 [Compound 7, (S)-6-(4-(tert-butyl)phenyl)-N-(2-(2-cyano-4,4-difluoropyrrolidin-1-yl)-2-oxoethyl)quinoline-4-carboxamide] | – | > 10 µM | < 1000 nM | –
6 | Cn1ccc2cc(-c3ccc4nccc(C(=O)NCC(=O)N5CC(F)(F)C[C@H]5C#N)c4c3)ccc21 [Compound 8, (S)—N-(2-(2-cyano-4,4-difluoropyrrolidin-1-yl)-2-oxoethyl)-6-(1-methyl-1H-indol-5-yl)quinoline-4-carboxamide] | – | 1 to 10 µM | < 1000 nM | –
7 | N#C[C@@H]1CC(F)(F)CN1C(=O)CNC(=O)c1ccnc2ccc(-c3ccc4[nH]ccc4c3)cc12 [Compound 9, (S)—N-(2-(2-cyano-4,4-difluoropyrrolidin-1-yl)-2-oxoethyl)-6-(1H-indol-5-yl)quinoline-4-carboxamide] | – | > 10 µM | < 1000 nM | –
8 | Cn1cc(-c2ccc3nccc(C(=O)NCC(=O)N4CC(F)(F)C[C@H]4C#N)c3c2)cn1 [Compound 10, (S)—N-(2-(2-cyano-4,4-difluoropyrrolidin-1-yl)-2-oxoethyl)-6-(1-methyl-1H-pyrazol-4-yl)quinoline-4-carboxamide] | – | > 10 µM | < 1000 nM | –
9 | N#C[C@@H]1CC(F)(F)CN1C(=O)CNC(=O)c1ccnc2ccc(-c3cnn(C4CC4)c3)cc12 [Compound 11, (S)—N-(2-(2-cyano-4,4-difluoropyrrolidin-1-yl)-2-oxoethyl)-6-(1-cyclopropyl-1H-pyrazol-4-yl)quinoline-4-carboxamide] | – | 1 to 10 µM | < 1000 nM | –
10 | N#C[C@@H]1CC(F)(F)CN1C(=O)CNC(=O)c1ccnc2ccc(-c3ccc4c(c3)CCN4)cc12 [Compound 12, (S)—N-(2-(2-cyano-4,4-difluoropyrrolidin-1-yl)-2-oxoethyl)-6-(indolin-5-yl)quinoline-4-carboxamide] | – | > 10 µM | < 1000 nM | –
11 | CC(C)C/C=C/c1ccc2nccc(C(=O)NCC(=O)N3CC(F)(F)C[C@H]3C#N)c2c1 [Compound 13, (S,E)-N-(2-(2-cyano-4,4-difluoropyrrolidin-1-yl)-2-oxoethyl)-6-(4-methylpent-1-en-1-yl)quinoline-4-carboxamide] | – | > 10 µM | < 1000 nM | –
12 | N#C[C@@H]1CC(F)(F)CN1C(=O)CNC(=O)c1ccnc2ccc(/C=C/c3ccccc3)cc12 [Compound 14, (S,E)-N-(2-(2-cyano-4,4-difluoropyrrolidin-1-yl)-2-oxoethyl)-6-styrylquinoline-4-carboxamide] | – | > 10 µM | < 1000 nM | –
13 | CN(C)c1ccc2cc(-c3ccc4nccc(C(=O)NCC(=O)N5CC(F)(F)C[C@H]5C#N)c4c3)ccc2c1 [Compound 15, (S)—N-(2-(2-cyano-4,4-difluoropyrrolidin-1-yl)-2-oxoethyl)-6-(6-(dimethylamino)naphthalen-2-yl)quinoline-4-carboxamide] | – | > 10 µM | < 1000 nM | –
14 | N#C[C@@H]1CC(F)(F)CN1C(=O)CNC(=O)c1ccnc2ccc(-c3ccc(=O)[nH]c3)cc12 [Compound 17, (S)—N-(2-(2-cyano-4,4-difluoropyrrolidin-1-yl)-2-oxoethyl)-6-(6-oxo-1,6-dihydropyridin-3-yl)quinoline-4-carboxamide] | – | > 10 µM | < 1000 nM | –
15 | N#C[C@@H]1CC(F)(F)CN1C(=O)CNC(=O)c1ccnc2ccc(-c3ccc4c(c3)CCNC4=O)cc12 [Compound 18, (S)—N-(2-(2-cyano-4,4-difluoropyrrolidin-1-yl)-2-oxoethyl)-6-(1-oxo-1,2,3,4-tetrahydroisoquinolin-6-yl)quinoline-4-carboxamide] | – | < 1 µM | < 1000 nM | –
16 | N#C[C@@H]1CC(F)(F)CN1C(=O)CNC(=O)c1ccnc2ccc(/C=C/c3ccccn3)cc12 [Compound 21] | – | > 10 µM | < 1000 nM | –
17 | COC(=O)/C=C/c1ccc2nccc(C(=O)NCC(=O)N3CC(F)(F)C[C@H]3C#N)c2c1 [Compound 22] | – | > 10 µM | < 1000 nM | –
18 | Cc1ccc(-c2ccc3nccc(C(=O)NCC(=O)N4CC(F)(F)C[C@H]4C#N)c3c2)cn1 [Compound 23] | > 50% | – | < 1000 nM | < 1000 nM
19 | N#C[C@@H]1CC(F)(F)CN1C(=O)CNC(=O)c1ccnc2ccc(-c3ccc4c(c3)OCCO4)cc12 [Compound 24] | > 50% | – | < 1000 nM | < 1000 nM
20 | N#C[C@@H]1CC(F)(F)CN1C(=O)CNC(=O)c1ccnc2ccc(-c3ccc(C4CC4)nc3)cc12 [Compound 25] | > 50% | – | < 1000 nM | < 1000 nM
21 | N#C[C@@H]1CC(F)(F)CN1C(=O)CNC(=O)c1ccnc2ccc(-c3ccc(OC(F)(F)F)cc3)cc12 [Compound 31] | – | > 10 µM | < 1000 nM | –

Row | SMILES | inhibition at 1 µM [1] | IC50 [2] | IC50 [3] | IC50 [1]
22 | CN1CCN(Cc2ccc(-c3ccc4nccc(C(=O)NCC(=O)N5CC(F)(F)C[C@H]5C#N)c4c3)cc2)CC1 [Compound 32] | > 50% | > 10 µM | – | –
23 | COc1ccc(-c2ccc3nccc(C(=O)NCC(=O)N4CC(F)(F)C[C@H]4C#N)c3c2)cn1 [Compound 33] | > 50% | – | < 1000 nM | < 1000 nM
24 | CC(C)Oc1ccc(-c2ccc3nccc(C(=O)NCC(=O)N4CC(F)(F)C[C@H]4C#N)c3c2)cn1 [Compound 34] | > 50% | – | < 1000 nM | < 1000 nM
25 | COCCOc1ccc(-c2ccc3nccc(C(=O)NCC(=O)N4CC(F)(F)C[C@H]4C#N)c3c2)cc1 [Compound 35] | > 50% | – | < 1000 nM | < 1000 nM
26 | COCCOc1ccc(-c2ccc3nccc(C(=O)NCC(=O)N4CC(F)(F)C[C@H]4C#N)c3c2)cn1 [Compound 36] | – | > 10 µM | < 1000 nM | –
27 | N#C[C@@H]1CC(F)(F)CN1C(=O)CNC(=O)c1ccnc2ccc(/C=C/c3ccc4c(c3)CCC(=O)N4)cc12 [Compound 37] | > 50% | – | < 1000 nM | < 1000 nM
28 | CC(=O)Nc1ccc(-c2ccc3nccc(C(=O)NCC(=O)N4CC(F)(F)C[C@H]4C#N)c3c2)cc1 [Compound 97] | – | > 10 µM | < 1000 nM | –
29 | CC(=O)Nc1cccc(-c2ccc3nccc(C(=O)NCC(=O)N4CC(F)(F)C[C@H]4C#N)c3c2)c1 [Compound 98] | – | > 10 µM | < 1000 nM | –
30 | CC(=O)Nc1ccccc1-c1ccc2nccc(C(=O)NCC(=O)N3CC(F)(F)C[C@H]3C#N)c2c1 [Compound 99] | > 50% | > 10 µM | – | –
31 | CNC(=O)c1ccc(-c2ccc3nccc(C(=O)NCC(=O)N4CC(F)(F)C[C@H]4C#N)c3c2)cc1 [Compound 100] | – | > 10 µM | < 1000 nM | –
32 | N#C[C@@H]1CC(F)(F)CN1C(=O)CNC(=O)c1ccnc2ccc(-c3ccc4[nH]ncc4c3)cc12 [Compound 101] | > 50% | – | < 1000 nM | < 1000 nM
33 | CNC(=O)c1cccc(-c2ccc3nccc(C(=O)NCC(=O)N4CC(F)(F)C[C@H]4C#N)c3c2)c1 [Compound 102] | – | > 10 µM | < 1000 nM | –
34 | N#C[C@@H]1CC(F)(F)CN1C(=O)CNC(=O)c1ccnc2ccc(-c3c[nH]c4ccccc34)cc12 [Compound 103] | > 50% | – | < 1000 nM | < 1000 nM
35 | N#C[C@@H]1CC(F)(F)CN1C(=O)CNC(=O)c1ccnc2ccc(-c3ccc4c(c3)CNC4=O)cc12 [Compound 104] | – | < 1 µM | < 1000 nM | –
36 | N#C[C@@H]1CC(F)(F)CN1C(=O)CNC(=O)c1ccnc2ccc(/C=C/c3ccc4ncccc4c3)cc12 [Compound 105] | > 50% | – | – | –
37 | N#C[C@@H]1CC(F)(F)CN1C(=O)CNC(=O)c1ccnc2ccc(-c3ccc4c(c3)CC(=O)N4)cc12 [Compound 106] | > 50% | – | < 1000 nM | < 1000 nM
38 | N#C[C@@H]1CC(F)(F)CN1C(=O)CNC(=O)c1ccnc2ccc(-c3cccc4c3CCC(=O)N4)cc12 [Compound 108] | – | > 10 µM | < 1000 nM | –
39 | N#C[C@@H]1CC(F)(F)CN1C(=O)CNC(=O)c1ccnc2ccc(-c3cccc4c3CCNC4=O)cc12 [Compound 109] | – | > 10 µM | < 1000 nM | –
40 | N#C[C@@H]1CC(F)(F)CN1C(=O)CNC(=O)c1ccnc2ccc(-c3ccc4c(c3)CCNC4)cc12 [Compound 114] | > 50% | > 10 µM | – | –
41 | N#C[C@@H]1CC(F)(F)CN1C(=O)CNC(=O)c1ccnc2ccc(/C=C/c3ccc4c(c3)CCN4)cc12 [Compound 115] | – | > 10 µM | < 1000 nM | –
42 | CNC(=O)c1ccc(-c2ccc3nccc(C(=O)NCC(=O)N4CC(F)(F)C[C@H]4C#N)c3c2)cc1F [Compound 116] | – | > 10 µM | < 1000 nM | –
